Reference: patent US20220389049A1, “REVERSIBLE TERMINATORS FOR DNA SEQUENCING AND METHODS OF USING THE SAME” (Centrillion Technologies, Inc., priority 2019, published 2022)

Legend:
DNA polymerase ("CENT1") = assay: Enzymatic incorporation and cleavage studies: primer extension with compound 5 into a growing DNA chain (FIG. 2); type: biochemical
Description: Enzymatic Incorporation and Cleavage Studies: (2R,3S,5R)-2-(((hydroxy((hydroxy(phosphonooxy)phosphoryl)oxy)phosphoryl)oxy)methyl)-5-(5-methyl-2,4-dioxo-3,4-dihydropyrimidin-1(2H)-yl)tetrahydrofuran-3-yl 3-azidopropanoate (5), a model compound, was synthesized similar to conditions of the relevant reactions disclosed in Scheme 1.

[1] = Chemical cleavage of the 3′O-blocking group of the free triphosphate by reducing reagent; type: physicochemical; conditions: heating with THPP or TCEP in 1×TE buffer at 55° C. for 5 min
Procedure: Cleavage of 3′O-[dithio-1-butynyl)-methyl)-thymidine triphosphate (15): The 3′O-bolcking group, alkyne dithioalkynemethyl ether from triphosphate 15 was cleaved by heating with 1, 4-dithiothreitol or (DTT) or tris(2-carboxyethyl) phosphine (TCEP) in 1×TE buffer (pH 9.5) at 55 degree Celsius for 5 min to afford thymidine triphosphate as shown in the Scheme 5.

growing DNA chain = assay: Enzymatic incorporation: primer extension with compound 15 into a growing DNA chain (FIG. 3); type: biochemical; conditions: FIG. 3 lanes 3, 4, 6 and 7

| blockage of further extension after incorporation of the terminator (DNA polymerase ("CENT1"); "runaway" reaction in the presence of all four unmodified dNTPs and a polymerase, FIG. 2 lane 4) | further extension by the next base added after the cleavage (DNA polymerase ("CENT1"); FIG. 2 lane 6) | enzymatic incorporation (DNA polymerase ("CENT1"); in the presence of DNA polymerase ("CENT1"), FIG. 2 lane 3) | cleavage of the 3′O-azidoalkanoate [1] | SMILES | cleavage of the label and the blocking group after incorporation (DNA polymerase ("CENT1"); FIG. 2 lane 5) | enzymatic incorporation (growing DNA chain) |
| --- | --- | --- | --- | --- | --- | --- |
| blockage of further extension | further extension by the next base added | can be used in enzymatic incorporation | neatly cleaved | Cc1cn([C@H]2C[C@@H](OC(=O)CCN=[N+]=[N-])[C@@H](COP(=O)(O)OP(=O)(O)OP(=O)(O)O)O2)c(=O)[nH]c1=O [compound 5, 3′O-(3-azidopropionyl)-thymidine triphosphate] | cleavage of the label and the blocking group | – |
| – | – | – | – | C#CCCCSSCO[C@@H]1C[C@H](n2cc(C)c(=O)[nH]c2=O)O[C@@H]1COP(=O)(O)OP(=O)(O)OP(=O)(O)O [compound 15] | – | excellent enzymatic incorporation |
